Laboratory results as given in patent USRE48461E1, “Modulation of androgen receptor expression” (Ionis Pharmaceuticals, Inc., priority 2012, dated 2021).

Assays:
Type in all cases: cell-based, human
AR mRNA = assay: AR RNA expression in LNCaP cells (complete, CSS, CSS+DHT medium); settings: for Percent expression of AR in LNCaP cells cultured in CSS + DHT medium: CSS + DHT (1 nM) medium; for Percent expression of AR in LNCaP cells cultured in CSS + DHT medium / Percent expression of AR in LNCaP cells cultured in CSS medium: 48 hrs; for Percent expression of AR in LNCaP cells cultured in complete medium: 48 hours
22RV1 cells = assay: 22RV1 apoptosis (Caspase-glo 3/7); settings: 22RV1 cells, 72 hours
Experimental: After a treatment period of 72 hours in complete medium or CSS+DHT medium, apoptosis of the cancer cells was measured with Caspase-glo 3/7 assay kit (Promega). Results are presented in Tables 131 and 132 as percent apoptosis of the cells, relative to non-treated cells.

AR V7 variant mRNA = assay: AR V7 variant RNA in 22RV1 cells; settings: RNAiMax, 48 hrs
PSA mRNA [1] = assay: PSA expression in LNCaP cells (complete, CSS+DHT medium); settings: for Percent inhibition of PSA expression in LNCaP cells cultured in CSS + DHT medium: CSS + DHT (1 nM) medium, 48 hrs; for Percent inhibition of PSA expression in LNCaP cells cultured in complete medium: 48 hours
In short: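 LNCaP cells treated with antisense oligonucleotides, ISIS 549148 as negative control; AR, PSA and TMPRSS2 RNA measured after 48 h. Complete medium used 1,000 cells/well; stripped-serum condition used 2,000 cells/well in phenol red-free RPMI with 5% charcoal-stripped serum, with 1 nM DHT (final) added 4 h after treatment.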

PSA mRNA [2] = assay: PSA expression in 22RV1 cells; settings: RNAiMax, 48 hrs
In short: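 In 22RV1 cells, full-length AR, AR-V7, PSA and TMPRSS2 RNA measured after 48 h compound incubation. Complete-medium format used 1,000 cells/well; CSS+DHT format used 2,000 cells/well cultured 16 h in CSS medium, with 1 nM DHT added after 4 h.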

PSA mRNA [3] = assay: PSA expression in C4-2 cells; settings: 48 hrs; for Percent inhibition of PSA expression: C4-2 cells, CSS + DHT medium
Experimental: Cells were plated at 1,000 cells per well. […] After an incubation period of 48 hrs, RNA levels of AR, PSA and TMPRSS2 were measured.
Cells were plated at 2,000 cells per well and cultured in CSS media with 1 nM DHT. […] After an incubation period of 48 hrs, RNA levels of AR, PSA and TMPRSS2 were measured.

C4-2 cells = assay: C4-2 cell proliferation (complete or CSS+DHT medium); settings: C4-2 cells, 5 days
Experimental: After a treatment period of 5 days in complete medium or CSS+1 nM DHT medium, the proliferative capacity of the cancer cells was measured with using CellTiter 96® AQueous One Solution or CellTiter-Glo® Cell Proliferation kit (Promega), following the manufacturer's instructions. […] The proliferative capacity of cells cultured in CSS medium without DHT is 17% of untreated control levels.

TMPRSS2 mRNA = assay: TMPRSS2 expression in VCaP cells; settings: RNAiMax, 48 hrs

Sequence: GGCTACTACGCCGTCA (3-10-3 (S)-cEt gapmer, chemistry not fully specified) [ISIS 549148, reference compound]
- Percent expression of AR in LNCaP cells cultured in CSS + DHT medium (AR mRNA; 0.04 μM): 98%
- Percent expression of AR in LNCaP cells cultured in CSS + DHT medium (AR mRNA; 0.2 μM): 102%
- Percent expression of AR in LNCaP cells cultured in CSS + DHT medium (AR mRNA; 1 μM): 96%
- Percent expression of AR in LNCaP cells cultured in CSS medium (AR mRNA; 0.04 μM): 106%
- Percent expression of AR in LNCaP cells cultured in CSS medium (AR mRNA; 0.2 μM): 97%
- Percent expression of AR in LNCaP cells cultured in CSS medium (AR mRNA; 1 μM): 96%
- Percent expression of AR in LNCaP cells cultured in CSS medium (AR mRNA; 5.0 μM): 104%
- Percent expression of AR in LNCaP cells cultured in complete medium (AR mRNA; 0.04 μM): 102%
- Percent expression of AR in LNCaP cells cultured in complete medium (AR mRNA; 1 μM): 109%
- Percent expression of AR in LNCaP cells cultured in complete medium (AR mRNA; 5.0 μM): 109%
- Apoptosis (% untreated control) (22RV1 cells; CSS + DHT medium, 1.34 nM): 113 % untreated control
- Apoptosis (% untreated control) (22RV1 cells; CSS + DHT medium, 4.0 nM): 94 % untreated control
- Apoptosis (% untreated control) (22RV1 cells; CSS + DHT medium, 13.4 nM): 102 % untreated control
- Apoptosis (% untreated control) (22RV1 cells; CSS + DHT medium, 40 nM): 108 % untreated control
- Apoptosis (% untreated control) (22RV1 cells; complete medium, 1.34 nM): 81 % untreated control
- Apoptosis (% untreated control) (22RV1 cells; complete medium, 4.0 nM): 76 % untreated control
- Apoptosis (% untreated control) (22RV1 cells; complete medium, 13.4 nM): 72 % untreated control
- Apoptosis (% untreated control) (22RV1 cells; complete medium, 40 nM): 123 % untreated control
- Percent inhibition of AR V7 variant (AR V7 variant mRNA; CSS + DHT medium, 1.34 nM): 19%
- Percent inhibition of AR V7 variant (AR V7 variant mRNA; CSS + DHT medium, 4.0 nM): 19%
- Percent inhibition of AR V7 variant (AR V7 variant mRNA; CSS + DHT medium, 13.4 nM): 32%
- Percent inhibition of AR V7 variant (AR V7 variant mRNA; complete medium, 1.34 nM): 0%
- Percent inhibition of AR V7 variant (AR V7 variant mRNA; complete medium, 4.0 nM): 0%
- Percent inhibition of AR V7 variant (AR V7 variant mRNA; complete medium, 13.4 nM): 22%
- Percent inhibition of AR V7 variant (AR V7 variant mRNA; complete medium, 40 nM): 26%
- Percent inhibition of PSA expression in LNCaP cells cultured in CSS + DHT medium (PSA mRNA [1]; 0.04 μM): 0%
- Percent inhibition of PSA expression in LNCaP cells cultured in CSS + DHT medium (PSA mRNA [1]; 0.2 μM): 8%
- Percent inhibition of PSA expression in LNCaP cells cultured in CSS + DHT medium (PSA mRNA [1]; 1 μM): 0%
- Percent inhibition of PSA expression in LNCaP cells cultured in CSS + DHT medium (PSA mRNA [1]; 5.0 μM): 9%
- Percent inhibition of PSA expression in LNCaP cells cultured in complete medium (PSA mRNA [1]; 0.04 μM): 0%
- Percent inhibition of PSA expression in LNCaP cells cultured in complete medium (PSA mRNA [1]; 0.2 μM): 0%
- Percent inhibition of PSA expression in LNCaP cells cultured in complete medium (PSA mRNA [1]; 1 μM): 0%
- Percent inhibition of PSA expression in LNCaP cells cultured in complete medium (PSA mRNA [1]; 5.0 μM): 0%
- Percent inhibition of PSA expression (PSA mRNA [2]; CSS + DHT medium, 1.34 nM): 8%
- Percent inhibition of PSA expression (PSA mRNA [2]; CSS + DHT medium, 4.0 nM): 23%
- Percent inhibition of PSA expression (PSA mRNA [2]; CSS + DHT medium, 13.4 nM): 29%
- Percent inhibition of PSA expression (PSA mRNA [2]; complete medium, 1.34 nM): 9%
- Percent inhibition of PSA expression (PSA mRNA [2]; complete medium, 4.0 nM): 11%
- Percent inhibition of PSA expression (PSA mRNA [2]; complete medium, 13.4 nM): 17%
- Percent inhibition of PSA expression (PSA mRNA [2]; complete medium, 40 nM): 27%
- Percent inhibition of PSA expression (PSA mRNA [3]; 0.04 μM): 0%
- Percent inhibition of PSA expression (PSA mRNA [3]; 0.2 μM): 8%
- Percent inhibition of PSA expression (PSA mRNA [3]; 1 μM): 21%
- Percent inhibition of PSA expression (PSA mRNA [3]; 5.0 μM): 22%
- Percent inhibition of PSA expression in C4-2 cells cultured in complete medium (PSA mRNA [3]; 0.04 μM): 15%
- Percent inhibition of PSA expression in C4-2 cells cultured in complete medium (PSA mRNA [3]; 0.2 μM): 24%
- Percent inhibition of PSA expression in C4-2 cells cultured in complete medium (PSA mRNA [3]; 1 μM): 24%
- Percent inhibition of PSA expression in C4-2 cells cultured in complete medium (PSA mRNA [3]; 5.0 μM): 23%
- Proliferation (% untreated control) (C4-2 cells; CSS + DHT medium, 0.04 μM): 102 % untreated control
- Proliferation (% untreated control) (C4-2 cells; CSS + DHT medium, 0.2 μM): 82 % untreated control
- Proliferation (% untreated control) (C4-2 cells; CSS + DHT medium, 1 μM): 82 % untreated control
- Proliferation (% untreated control) (C4-2 cells; CSS + DHT medium, 5.0 μM): 91 % untreated control
- Proliferation (% untreated control) (C4-2 cells; complete medium, 0.04 μM): 106 % untreated control
- Proliferation (% untreated control) (C4-2 cells; complete medium, 0.2 μM): 112 % untreated control
- Proliferation (% untreated control) (C4-2 cells; complete medium, 1 μM): 91 % untreated control
- Proliferation (% untreated control) (C4-2 cells; complete medium, 5.0 μM): 94 % untreated control
- Percent inhibition of TMPRSS2 expression (TMPRSS2 mRNA; CSS + DHT medium, 1.34 nM): 0%
- Percent inhibition of TMPRSS2 expression (TMPRSS2 mRNA; CSS + DHT medium, 4.0 nM): 0%
- Percent inhibition of TMPRSS2 expression (TMPRSS2 mRNA; CSS + DHT medium, 13.4 nM): 0%
- Percent inhibition of TMPRSS2 expression (TMPRSS2 mRNA; CSS + DHT medium, 40 nM): 0%
- Percent inhibition of TMPRSS2 expression (TMPRSS2 mRNA; complete medium, 1.34 nM): 0%
- Percent inhibition of TMPRSS2 expression (TMPRSS2 mRNA; complete medium, 4.0 nM): 0%
- Percent inhibition of TMPRSS2 expression (TMPRSS2 mRNA; complete medium, 13.4 nM): 0%
- Percent inhibition of TMPRSS2 expression (TMPRSS2 mRNA; complete medium, 40 nM): 0%
